Columns and labels:
Experiment in all cases: viability relative to DMSO control (fraction); higher = less drug effect (more viable cells)
Conditions in all cases: 48 h
[1] = test system: primary AML patient cells (S021)
In short: (§1)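 The cells were primary mononuclear tumour cells, either fresh or cryopreserved, isolated by Ficoll from blood or bone marrow or derived from processed lymph node. Each well of a 384-well plate received 4 × 10^4 cells onto compounds pre-plated at five concentrations, with one well per concentration. The medium was RPMI-1640 with penicillin/streptomycin, L-glutamine and human serum, and plates stood at 37 °C and 5% CO2 for 48 h. Viability is reported as CellTiter-Glo luminescence relative to the median of 16 inner DMSO wells.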

[2] = test system: primary FL patient cells (S087)
In short: as §1

[3] = test system: primary ALL patient cells (S088)
In short: as §1

[4] = test system: primary B-PLL patient cells (S016)
In short: as §1

[5] = test system: primary BL patient cells (S005)
In short: as §1

[6] = test system: primary AML patient cells (S056)
In short: as §1

[7] = test system: primary AML patient cells (S060)
In short: as §1

[8] = test system: primary AML patient cells (S017)
In short: as §1

[9] = test system: primary AML patient cells (S011)
In short: as §1

[10] = test system: primary AML patient cells (S012)
In short: as §1

[11] = test system: primary MCL patient cells (S068)
In short: as §1

[12] = test system: primary MCL patient cells (S063)
In short: as §1

[13] = test system: primary ALL patient cells (S048)
In short: as §1

[14] = test system: primary MCL patient cells (S053)
In short: as §1

[15] = test system: primary FL patient cells (S022)
In short: as §1

[16] = test system: primary AML patient cells (S081)
In short: as §1

[17] = test system: primary CLL patient cells (S031)
In short: as §1

[18] = test system: primary AML patient cells (S085)
In short: as §1

[19] = test system: primary CLL patient cells (S043)
In short: as §1

[20] = test system: primary AML patient cells (S006)
In short: as §1

With `Nc1nc(=S)c2[nH]cnc2[nH]1` [Thioguanin] the viability ([1]; 0.024 µM) was 1.11, the viability ([1]; 0.12 µM) was 0.984 and the viability ([1]; 0.6 µM) was 0.918. The viability ([1]; 3 µM) was 0.672, the viability ([1]; 15 µM) was 0.435 and the viability ([2]; 0.024 µM) was 0.998. The viability ([2]; 0.12 µM) was 0.952, the viability ([2]; 0.6 µM) was 0.804 and the viability ([2]; 3 µM) was 0.688. It also gave a viability ([2]; 15 µM) of 0.645, a viability ([3]; 0.024 µM) of 1.03 and a viability ([3]; 0.12 µM) of 1.08. It also gave a viability ([3]; 0.6 µM) of 0.904, a viability ([3]; 3 µM) of 0.565 and a viability ([3]; 15 µM) of 0.281. The viability ([4]; 0.024 µM) was 0.919, the viability ([4]; 0.12 µM) was 0.71 and the viability ([4]; 0.6 µM) was 0.403. It also gave a viability ([4]; 3 µM) of 0.23, a viability ([4]; 15 µM) of 0.212 and a viability ([5]; 0.024 µM) of 0.938. The viability ([5]; 0.12 µM) was 0.665, the viability ([5]; 0.6 µM) was 0.823 and the viability ([5]; 3 µM) was 0.673. For the same compound, the viability ([5]; 15 µM) was 0.261, the viability ([6]; 0.024 µM) was 0.912 and the viability ([6]; 0.12 µM) was 0.897. For the same compound, the viability ([6]; 0.6 µM) was 0.889, the viability ([6]; 3 µM) was 0.339 and the viability ([6]; 15 µM) was 0.127. The viability ([7]; 0.024 µM) was 1.03, the viability ([7]; 0.12 µM) was 0.969 and the viability ([7]; 0.6 µM) was 0.697. The viability ([7]; 3 µM) was 0.643, the viability ([7]; 15 µM) was 0.424 and the viability ([8]; 0.024 µM) was 0.97. For the same compound, the viability ([8]; 0.12 µM) was 1.05, the viability ([8]; 0.6 µM) was 0.785 and the viability ([8]; 3 µM) was 0.561. For the same compound, the viability ([8]; 15 µM) was 0.38, the viability ([9]; 0.024 µM) was 1.02 and the viability ([9]; 0.12 µM) was 0.977. It also gave a viability ([9]; 0.6 µM) of 0.658, a viability ([9]; 3 µM) of 0.339 and a viability ([9]; 15 µM) of 0.239. For the same compound, the viability ([10]; 0.024 µM) was 0.99, the viability ([10]; 0.12 µM) was 1 and the viability ([10]; 0.6 µM) was 0.946. The viability ([10]; 3 µM) was 0.751, the viability ([10]; 15 µM) was 0.513 and the viability ([11]; 0.024 µM) was 0.982. It also gave a viability ([11]; 0.12 µM) of 0.892, a viability ([11]; 0.6 µM) of 0.83 and a viability ([11]; 3 µM) of 0.6. For the same compound, the viability ([11]; 15 µM) was 0.299, the viability ([12]; 0.024 µM) was 1.03 and the viability ([12]; 0.12 µM) was 0.867. The viability ([12]; 0.6 µM) was 0.495, the viability ([12]; 3 µM) was 0.192 and the viability ([12]; 15 µM) was 0.064. The viability ([13]; 0.024 µM) was 0.949, the viability ([13]; 0.12 µM) was 0.906 and the viability ([13]; 0.6 µM) was 0.664. For the same compound, the viability ([13]; 3 µM) was 0.37, the viability ([13]; 15 µM) was 0.17 and the viability ([14]; 0.024 µM) was 0.893. For the same compound, the viability ([14]; 0.12 µM) was 0.699, the viability ([14]; 0.6 µM) was 0.45 and the viability ([14]; 3 µM) was 0.25. The viability ([14]; 15 µM) was 0.173, the viability ([15]; 0.024 µM) was 0.991 and the viability ([15]; 0.12 µM) was 0.955. The viability ([15]; 0.6 µM) was 0.835, the viability ([15]; 3 µM) was 0.622 and the viability ([15]; 15 µM) was 0.483. It also gave a viability ([16]; 0.024 µM) of 1.09, a viability ([16]; 0.12 µM) of 0.899 and a viability ([16]; 0.6 µM) of 0.621. It also gave a viability ([16]; 3 µM) of 0.465, a viability ([16]; 15 µM) of 0.319 and a viability ([17]; 0.024 µM) of 1.07. For the same compound, the viability ([17]; 0.12 µM) was 0.972, the viability ([17]; 0.6 µM) was 0.801 and the viability ([17]; 3 µM) was 0.613. The viability ([17]; 15 µM) was 0.327, the viability ([18]; 0.024 µM) was 1.03 and the viability ([18]; 0.12 µM) was 1. It also gave a viability ([18]; 0.6 µM) of 0.714, a viability ([18]; 3 µM) of 0.402 and a viability ([18]; 15 µM) of 0.24. The viability ([19]; 0.024 µM) was 0.884, the viability ([19]; 0.12 µM) was 0.798 and the viability ([19]; 0.6 µM) was 0.685. For the same compound, the viability ([19]; 3 µM) was 0.546, the viability ([19]; 15 µM) was 0.338 and the viability ([20]; 0.024 µM) was 1.07. The viability ([20]; 0.12 µM) was 0.996, the viability ([20]; 0.6 µM) was 0.57 and the viability ([20]; 3 µM) was 0.202. The viability ([20]; 15 µM) was 0.0984.

`CC(=O)Nc1cccc(-n2c(=O)n(C3CC3)c(=O)c3c(Nc4ccc(I)cc4F)n(C)c(=O)c(C)c32)c1` [Trametinib] was tested, and the viability ([1]; 0.0008 µM) was 0.864, the viability ([1]; 0.004 µM) was 0.697 and the viability ([1]; 0.02 µM) was 0.672. The viability ([1]; 0.1 µM) was 0.598, the viability ([1]; 0.5 µM) was 0.605 and the viability ([2]; 0.0008 µM) was 0.951. The viability ([2]; 0.004 µM) was 0.9, the viability ([2]; 0.02 µM) was 0.92 and the viability ([2]; 0.1 µM) was 0.903. It also gave a viability ([2]; 0.5 µM) of 0.941, a viability ([3]; 0.0008 µM) of 0.62 and a viability ([3]; 0.004 µM) of 0.548. The viability ([3]; 0.02 µM) was 0.545, the viability ([3]; 0.1 µM) was 0.503 and the viability ([3]; 0.5 µM) was 0.504. The viability ([4]; 0.0008 µM) was 0.939, the viability ([4]; 0.004 µM) was 1.05 and the viability ([4]; 0.02 µM) was 0.986. The viability ([4]; 0.1 µM) was 0.933, the viability ([4]; 0.5 µM) was 0.885 and the viability ([5]; 0.0008 µM) was 0.943. It also gave a viability ([5]; 0.004 µM) of 0.964, a viability ([5]; 0.02 µM) of 1.01 and a viability ([5]; 0.1 µM) of 0.984. For the same compound, the viability ([5]; 0.5 µM) was 0.912, the viability ([6]; 0.0008 µM) was 0.77 and the viability ([6]; 0.004 µM) was 0.66. For the same compound, the viability ([6]; 0.02 µM) was 0.588, the viability ([6]; 0.1 µM) was 0.535 and the viability ([6]; 0.5 µM) was 0.514. It also gave a viability ([7]; 0.0008 µM) of 1.04, a viability ([7]; 0.004 µM) of 0.797 and a viability ([7]; 0.02 µM) of 0.681. It also gave a viability ([7]; 0.1 µM) of 0.657, a viability ([7]; 0.5 µM) of 0.642 and a viability ([8]; 0.0008 µM) of 1.02. It also gave a viability ([8]; 0.004 µM) of 1.1, a viability ([8]; 0.02 µM) of 0.888 and a viability ([8]; 0.1 µM) of 0.852. It also gave a viability ([8]; 0.5 µM) of 0.719, a viability ([9]; 0.0008 µM) of 0.855 and a viability ([9]; 0.004 µM) of 0.925. For the same compound, the viability ([9]; 0.02 µM) was 0.953, the viability ([9]; 0.1 µM) was 0.931 and the viability ([9]; 0.5 µM) was 0.879. It also gave a viability ([10]; 0.0008 µM) of 0.799, a viability ([10]; 0.004 µM) of 0.808 and a viability ([10]; 0.02 µM) of 0.45. For the same compound, the viability ([10]; 0.1 µM) was 0.406, the viability ([10]; 0.5 µM) was 0.306 and the viability ([11]; 0.0008 µM) was 0.921. For the same compound, the viability ([11]; 0.004 µM) was 0.8, the viability ([11]; 0.02 µM) was 0.791 and the viability ([11]; 0.1 µM) was 0.727. For the same compound, the viability ([11]; 0.5 µM) was 0.7, the viability ([12]; 0.0008 µM) was 0.991 and the viability ([12]; 0.004 µM) was 0.973. The viability ([12]; 0.02 µM) was 0.987, the viability ([12]; 0.1 µM) was 0.949 and the viability ([12]; 0.5 µM) was 0.936. The viability ([13]; 0.0008 µM) was 0.818, the viability ([13]; 0.004 µM) was 0.766 and the viability ([13]; 0.02 µM) was 0.674. For the same compound, the viability ([13]; 0.1 µM) was 0.666, the viability ([13]; 0.5 µM) was 0.592 and the viability ([14]; 0.0008 µM) was 0.885. The viability ([14]; 0.004 µM) was 0.899, the viability ([14]; 0.02 µM) was 0.818 and the viability ([14]; 0.1 µM) was 0.806. It also gave a viability ([14]; 0.5 µM) of 0.733, a viability ([15]; 0.0008 µM) of 0.845 and a viability ([15]; 0.004 µM) of 0.986. The viability ([15]; 0.02 µM) was 0.851, the viability ([15]; 0.1 µM) was 1.18 and the viability ([15]; 0.5 µM) was 0.824. For the same compound, the viability ([16]; 0.0008 µM) was 0.999, the viability ([16]; 0.004 µM) was 0.935 and the viability ([16]; 0.02 µM) was 0.742. The viability ([16]; 0.1 µM) was 0.651, the viability ([16]; 0.5 µM) was 0.567 and the viability ([17]; 0.0008 µM) was 0.648. For the same compound, the viability ([17]; 0.004 µM) was 0.49, the viability ([17]; 0.02 µM) was 0.379 and the viability ([17]; 0.1 µM) was 0.349. It also gave a viability ([17]; 0.5 µM) of 0.311, a viability ([18]; 0.0008 µM) of 0.667 and a viability ([18]; 0.004 µM) of 0.618. The viability ([18]; 0.02 µM) was 0.484, the viability ([18]; 0.1 µM) was 0.456 and the viability ([18]; 0.5 µM) was 0.415. It also gave a viability ([19]; 0.0008 µM) of 0.825, a viability ([19]; 0.004 µM) of 0.769 and a viability ([19]; 0.02 µM) of 0.777. The viability ([19]; 0.1 µM) was 0.748, the viability ([19]; 0.5 µM) was 0.744 and the viability ([20]; 0.0008 µM) was 0.888. It also gave a viability ([20]; 0.004 µM) of 0.939, a viability ([20]; 0.02 µM) of 0.787 and a viability ([20]; 0.1 µM) of 0.86. The viability ([20]; 0.5 µM) was 0.798.
